Test results: patent US8445440B2, “Dimeric IAP inhibitors” (Novartis AG, priority 2010, dated 2013)

How the values were obtained:
[1] = system: SKOV3 or Panc3.27 tumor cells; experiment: In vitro combination study, fixed concentration of IAP inhibitor with varied combination agent; type: cell-based; details: each agent alone
Experimental: (§1) On day one adherent SKOV3 and Panc3.27 cells are plated into two 96-well, clear, flat bottom plates. All wells in row A contain 90 uL of media. All wells in rows B-G contain a total volume of 90 uL per well and 2000 cells per well for SKOV3 and 4000 cells per well for Panc3.27 cell lines. Plates are then incubated overnight for 18 hours at 37° C., 5% CO2.
On day two cells are treated with the compounds of formula M-L-M′. Treatments are done in triplicate. The compounds are first serially diluted in DMSO and then added to media giving a final concentration of 0.2% DMSO when added to cells. […]
To measure cell viability 50 uL of Cell Titer Glo (CTG) solution is added to row A, media only and B, cells and media. […] After incubating for ten minutes with CTG plates are measured on a luminescent reader at 700 nm wavelength. Read time is approximately one second per well for a 96-well plate.
On day five 50 uL of CTG is added to plate one, rows A-G, incubated for 10 minutes at room temperature and read on a luminescent reader. […] Triplicate values are averaged and percent control growth is calculated. Percent control growth is calculated using the following logical test: If well read data point (a) is greater than time zero data point (t=0), then 100*[(a)−(t=0)]/[(72 hour total growth)−(t=0)], OR 100*[(a)−(t=0)]/[(t=0)]. […]

[2] = target: XIAP-BIR3 (Homo sapiens, UniProt P98170); experiment: Biacore SPR solution competition binding assay vs smac7 mer peptide, XIAP-BIR3; details: citrate salt form tested; 100 nM XIAP-BIR3; 25° C.; read-out: XIAP-BIR3 Binding Biacore (Competitive) EC50
Sequence of XIAP-BIR3 (P98170 241-356 limits assumed): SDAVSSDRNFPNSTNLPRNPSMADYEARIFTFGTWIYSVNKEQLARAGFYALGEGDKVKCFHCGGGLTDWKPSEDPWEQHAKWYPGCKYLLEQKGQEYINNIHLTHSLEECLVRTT
Description: (§2) The compounds described herein above were profiled using a cellular assay (using SKOV3 or Panc3.27 tumor cells) and a binding assay to determine the competition between the compounds of the present invention and smac7 mer peptide for XIAP-BIR3 and cIAP1-BIR3 binding groove occupancy.
(§3) The present method includes utility of a Surface plasmon resonance (SPR)-based biosensor (Biacore™ GE Healthcare, Uppsala, Sweden) to examine competition between the compounds of the present invention and smac7 mer peptide for XIAP-BIR3 and cIAP1-BIR3 binding groove occupancy.
(§4) Biacore™ utilizes the phenomenon of surface plasmon resonance (SPR) to detect and measure binding interactions. In a typical Biacore experiment, one of the interacting molecules is immobilized on a flexible dextran matrix while the interacting partner is flowed over the derivatized surface. A binding interaction results in an increase in mass on the sensor surface and a corresponding direct change in the refractive index of the medium in the vicinity of the sensor surface. Changes in refractive index or signal are recorded in resonance units (R.U.) Signal changes due to association and dissociation of complexes are monitored in a non-invasive manner, continuously and in real-time, the results of which are reported in the form of a sensorgram.
(§5) Biacore™ T100 (GE Healthcare, Uppsala, Sweden) was used to conduct all experiments reported herein. Sensor surface preparation and interaction analyses were performed at 25° C. Buffer and Biacore reagents were purchased from GE Healthcare. Running buffer containing 10 mM Hepes, pH7.4, 150 mM sodium chloride, 1.25 mM Dithiothreitol, 2% Dimethyl sulfoxide and 0.05% polysorbate 20 was utilized throughout all experiments.
(§6) Biotinylated smac7 mer peptide was diluted to 10 nM in running buffer and captured onto a sensor surface pre-derivatized with streptavidin (sensor chip SA) towards peptide surface densities in the range 40-100 R.U. Peptide captured surfaces were blocked with 500 μM PEO2-Biotin (Thermo Scientific).
(§7) Interaction analyses were performed by first equilibrating each compound within a six point seven fold compound dilution series in the range 1 μM to 0.06 nM with either 100 nM XIAP-BIR3 or 6 nM cIAP1-BIR3 for at least one hour during instrument start-up procedures. Protein compound mixtures were then injected over reference and smac7 mer peptide surfaces in series for 60 seconds at a flow-rate of 64 μL/minutes. Surface regeneration was performed at the end of each analysis cycle by a 30 second injection of 10 mM Glycine, pH 2.5, 1M Sodium Chloride, 0.05% polysorbate 20. Additionally, control compound samples and control XIAP-BIR3 or cIAP1-BIR3 samples were prepared and run at regular intervals to monitor surface and assay performance.
(§8) Data analyses were carried out using Biacore™ T100 evaluation software v2.0 to validate assay quality. Binding level report points were plotted versus logarithmic compound concentration values and analyzed in Graphpad prism 5 via non-linear regression using a one-site competition model. EC50 values were generated and used as a measure of inhibitor potency.

[3] = target: cIAP1-BIR3 (Homo sapiens, UniProt Q13490); experiment: Biacore SPR solution competition binding assay vs smac7 mer peptide, cIAP1-BIR3; details: citrate salt form tested; 6 nM cIAP1-BIR3; 25° C.; read-out: CIAP-BIR3 Binding Biacore (Competitive) EC50
Sequence of cIAP1-BIR3 (Q13490 260-352 limits assumed): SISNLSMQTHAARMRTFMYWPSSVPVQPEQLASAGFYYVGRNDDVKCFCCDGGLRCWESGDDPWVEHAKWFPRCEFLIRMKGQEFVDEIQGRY
Description: as §2, §3, §4, §5, §6, §7, §8

[4] = system: SKOV3 tumor cells; experiment: Cellular assay, SKOV3 tumor cell proliferation (Cell Titer Glo); type: cell-based; details: Homo sapiens, SK-OV-3, citrate salt form tested, 72 hour growth
Experimental: as §2, §1
(§9) On day two cells are treated with the compounds of formula M-L-M′. Treatments are done in triplicate. The compounds are first serially diluted in DMSO and then added to media giving a final concentration of 0.2% DMSO when added to cells. Cells are treated with 10 uL of serially diluted compounds of formula M-L-M′ at a final concentration of 1000 nM, 200 nM, 40 nM, 8 nM, 1.6 nM, 0.32 nM, 0.06 nM, 0.013 nM, 0.0026 nM, and one untreated well. Plate two is used as a time zero plate.
(§10) To measure cell viability 50 uL of Cell Titer Glo (CTG) solution is added to row A, media only and B, cells and media. CTG is purchased from Promega Corporation catalog number G7573. The solution is prepared according to manufacturer's instructions. CTG measures the amount of ATP released from viable cells that is proportional to the number of cells in each well. After incubating for ten minutes with CTG plates are measured on a luminescent reader at 700 nm wavelength. Read time is approximately one second per well for a 96-well plate.
(§11) On day five 50 uL of CTG is added to plate one, rows A-G, incubated for 10 minutes at room temperature and read on a luminescent reader. Raw data is adjusted to account for the time zero plate as well as background noise. Triplicate values are averaged and percent control growth is calculated. Percent control growth is calculated using the following logical test: If well read data point (a) is greater than time zero data point (t=0), then 100*[(a)−(t=0)]/[(72 hour total growth)−(t=0)], OR 100*[(a)−(t=0)]/[(t=0)]. Data is represented by line graph with the concentration of compound on the x axis and percent control growth on the y axis.

[5] = system: Panc3.27 tumor cells; experiment: Cellular assay, Panc3.27 tumor cell proliferation (Cell Titer Glo); type: cell-based; details: citrate salt form tested, Panc3.27 cells, 72 hour growth, read-out: PANC proliferation IC50
Experimental: as §2, §1, §9, §10, §11

SMILES	single agent activity in the in vitro combination study [1]	EC50 [2] [nM]	EC50 [3] [nM]	IC50 [4] [nM]	IC50 [5] [nM]
CC(=O)O[C@H]1C(=O)[C@@]2(C)[C@H]([C@H](OC(=O)c3ccccc3)[C@]3(O)C[C@H](OC(=O)[C@H](O)[C@@H](NC(=O)c4ccccc4)c4ccccc4)C(C)=C1C3(C)C)[C@]1(OC(C)=O)CO[C@@H]1C[C@@H]2O [Paclitaxel, paclitaxel, reference compound]	neither Example 1J nor paclitaxel alone showed significant activity				
CN[C@@H](C)C(=O)N[C@@H](CCCCNC(=O)c1ccc(-c2ccc(C(=O)NCCCC[C@H](NC(=O)[C@H](C)NC)C(=O)N3CCC[C@H]3c3cncc(C(=O)c4ccc(F)cc4)c3)cc2)cc1)C(=O)N1CCC[C@H]1c1cncc(C(=O)c2ccc(F)cc2)c1 [Example 1J, Biphenyl-4,4′-dicarboxylic acid bis-{[(S)-6-{(S)-2-[5-(4-fluorobenzoyl)-pyridin-3-yl]-pyrrolidin-1-yl}-5-((S)-2-methylamino-propionylamino)-6-oxo-hexyl]-amide}]	neither Example 1J nor paclitaxel alone showed significant activity	60.4 to 162	0.58 to 3.12	0.026 to 5.94	0.0026 to 6.67
CN[C@@H](C)C(=O)N[C@@H](CCCCNS(=O)(=O)c1ccc(-c2ccc(S(=O)(=O)NCCCC[C@H](NC(=O)[C@H](C)NC)C(=O)N3CCC[C@H]3c3cncc(C(=O)c4ccc(F)cc4)c3)cc2)cc1)C(=O)N1CCC[C@H]1c1cncc(C(=O)c2ccc(F)cc2)c1 [Example 1D, (S)-N-((S)-1-((S)-2-(5-(4-fluorobenzoyl)pyridin-3-yl)pyrrolidin-1-yl)-6-(4′-(N-((S)-6-((S)-2-(5-(4-fluorobenzoyl)pyridin-3-yl)pyrrolidin-1-yl)-5-((S)-2-(methylamino)propanamido)-6-oxohexyl)sulfamoyl)biphenyl-4-ylsulfonamido)-1-oxohexan-2-yl)-2-(methylamino)propanamide]		88.5 to 129	0.31 to 0.34	37.4 to 84.2	12.3 to 119
CN[C@@H](C)C(=O)N[C@@H](CCCCNS(=O)(=O)c1ccc2ccc(S(=O)(=O)NCCCC[C@H](NC(=O)[C@H](C)NC)C(=O)N3CCC[C@H]3c3cncc(C(=O)c4ccc(F)cc4)c3)cc2c1)C(=O)N1CCC[C@H]1c1cncc(C(=O)c2ccc(F)cc2)c1 [Example 1H, (S)-N-((S)-1-((S)-2-(5-(4-fluorobenzoyl)pyridin-3-yl)pyrrolidin-1-yl)-6-(7-(N-((S)-6-((S)-2-(5-(4-fluorobenzoyl)pyridin-3-yl)pyrrolidin-1-yl)-5-((S)-2-(methylamino)propanamido)-6-oxohexyl)sulfamoyl)naphthalene-2-sulfonamido)-1-oxohexan-2-yl)-2-(methylamino)propanamide]		46.3 to 53.5	0.88	80.8 to 86.4	13.3 to 140
CN[C@@H](C)C(=O)N[C@@H](Cc1ccc(NC(=O)CCCCC(=O)Nc2ccc(C[C@H](NC(=O)[C@H](C)NC)C(=O)N3CCC[C@H]3c3cncc(C(=O)c4ccc(F)cc4)c3)cc2)cc1)C(=O)N1CCC[C@H]1c1cncc(C(=O)c2ccc(F)cc2)c1 [Example 2C, Hexanedioic acid bis-({4-[(S)-3-{(S)-2-[5-(4-fluoro-benzoyl)-pyridin-3-yl]-pyrrolidin-1-yl}-2-((S)-2-methylamino-propionylamino)-3-oxo-propyl]-phenyl}-amide)]		125 to 138	0.58 to 0.6	59.7 to 317	144 to 391
